Measurements from paper PMC12523303, “Multi-Fused S,N-Heterocyclic Compounds for Targeting α-Synuclein Aggregates” (Cells, 2025).
Values joined by “and” are separate entries in the source; they are usually repeats but may differ in a detail not shown here. Equal entries are not always repeated. Where two headings read alike, the source gives them in different places.

Experiments:
α-syn fibrils [1] = molecular target: α-syn fibrils; set-up: method as in PMID 40256311; details: cited from earlier work
PD brain tissue = molecular target: PD brain tissue; set-up: method as in PMID 40256311; details: cited from earlier work
MDR1 = molecular target: T1, MDR1 (Homo sapiens, UniProt P08183); test: Bidirectional transport in MDR1-transfected MDCK cell monolayers; assay type: in vitro ADME; details: dog; for recovery at 2 μM: MDCK-MDR1, MDR1-MDCK permeability assay; for Papp A→B at 2 μM / Papp B→A at 2 μM: MDCK-MDR1; for Papp A→B at 2 μM: apical-to-basolateral, read-out: A→B apparent permeability; for Papp B→A at 2 μM: basolateral-to-apical, read-out: B→A apparent permeability
T1 construct: host or cells: MDCK cells
T1 sequence (P08183 whole entry): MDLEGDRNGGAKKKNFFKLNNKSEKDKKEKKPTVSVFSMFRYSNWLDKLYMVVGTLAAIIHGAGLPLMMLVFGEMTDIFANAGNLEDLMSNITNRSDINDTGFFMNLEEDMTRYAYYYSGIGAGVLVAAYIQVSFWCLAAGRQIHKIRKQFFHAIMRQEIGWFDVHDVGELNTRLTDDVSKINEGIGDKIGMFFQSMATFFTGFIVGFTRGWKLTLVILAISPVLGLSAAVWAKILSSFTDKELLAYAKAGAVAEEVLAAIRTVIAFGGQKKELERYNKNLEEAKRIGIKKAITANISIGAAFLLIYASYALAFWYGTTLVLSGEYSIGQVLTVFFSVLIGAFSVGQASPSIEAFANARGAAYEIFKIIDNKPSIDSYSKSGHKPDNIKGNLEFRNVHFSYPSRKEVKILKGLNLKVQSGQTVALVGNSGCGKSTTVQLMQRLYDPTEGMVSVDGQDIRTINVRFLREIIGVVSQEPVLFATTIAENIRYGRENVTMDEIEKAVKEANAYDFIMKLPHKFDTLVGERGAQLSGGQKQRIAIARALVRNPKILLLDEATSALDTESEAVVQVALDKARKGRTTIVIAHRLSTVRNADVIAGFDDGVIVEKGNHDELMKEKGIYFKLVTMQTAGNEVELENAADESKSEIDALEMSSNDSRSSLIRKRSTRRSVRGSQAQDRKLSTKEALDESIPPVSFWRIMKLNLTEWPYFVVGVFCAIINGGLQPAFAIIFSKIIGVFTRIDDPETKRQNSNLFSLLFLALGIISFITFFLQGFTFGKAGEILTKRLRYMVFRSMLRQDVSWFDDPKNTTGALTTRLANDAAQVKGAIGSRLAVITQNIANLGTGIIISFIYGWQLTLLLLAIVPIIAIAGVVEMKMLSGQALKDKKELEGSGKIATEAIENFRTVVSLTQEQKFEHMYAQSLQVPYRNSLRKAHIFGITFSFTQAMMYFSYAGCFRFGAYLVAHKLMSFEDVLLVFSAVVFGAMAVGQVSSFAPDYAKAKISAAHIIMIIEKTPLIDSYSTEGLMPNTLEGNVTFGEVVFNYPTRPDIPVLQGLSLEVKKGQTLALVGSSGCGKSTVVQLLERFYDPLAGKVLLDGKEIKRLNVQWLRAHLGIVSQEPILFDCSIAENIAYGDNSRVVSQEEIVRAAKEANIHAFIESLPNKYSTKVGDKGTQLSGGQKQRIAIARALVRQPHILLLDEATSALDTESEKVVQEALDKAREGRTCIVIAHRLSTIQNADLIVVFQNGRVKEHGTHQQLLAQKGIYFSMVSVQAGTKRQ
Protocol: (§1) MDR1-transfected MDCK cell monolayers, cultured for 5 days and obtained from the Netherlands Cancer Institute, were used for the in vitro bidirectional transport studies. Cells were maintained in Dulbecco’s Modified Eagle Medium (DMEM) supplemented with 10% fetal bovine serum (FBS) and 1% penicillin–streptomycin. They were subcultured every other day at a split ratio of 1:3 to 1:5. For transport experiments, cells were seeded onto polycarbonate Transwell® filter inserts (Millipore) in 24-well plates at a density of 500,000 cells per well. After 24 h, the medium was replaced, and the cells were cultured for an additional 4 days to allow tight junction formation before initiating the transport assays. Transport studies were performed in duplicate using a 2 μM concentration of test compound, in both apical-to-basolateral (A→B) and basolateral-to-apical (B→A) directions. The apparent permeability coefficient (P_app) was calculated using the following equation: Papp (cm/s) = (Vr/C0) (1/S) (dC/dt)
(§2) • P_app is the apparent permeability, • V_r is the volume of the receiver chamber, • C0 is the initial concentration in the donor chamber, • S is the surface area of the cell monolayer (0.7 cm^2; for a 24-well insert), • dC/dt is the rate of appearance of the compound in the receiver chamber.
(§3) The efflux ratio was calculated as: (1) Efflux ratio=Papp B−A/Papp A−B
(§4) Bioanalysis was carried out using LC-MS/MS.

[2] = molecular target: T2, MDR1-transfected MDCK cells (Homo sapiens, UniProt P08183); test: as above; assay type: in vitro ADME; details: MDR1-MDCK
T2 construct: host or cells: MDCK cells
T2 sequence (P08183 whole entry): as above
Protocol: as §1, §2, §3, §4

[3] = molecular target: post-mortem PD brain tissue; set-up: method as in PMID 38354298; details: cited from earlier work
[4] = molecular target: T3, α-synuclein (α-syn) aggregates in PD brain homogenates (Homo sapiens, UniProt P37840); set-up: method as in PMID 38354298; details: parent ligand, value printed in Figure 2; cited from earlier work
T3 construct: Anterior cingulate cortex tissue from a Parkinson’s disease (PD) case; tissue Banner Sun Health Research Institute (Dr. Thomas Beach); host or cells: post-mortem human PD anterior cingulate cortex homogenate

[5] = molecular target: T3, α-synuclein (α-syn) aggregates in PD brain homogenates; test: In vitro competition (Ki) assay vs [3H]asyn-44 in PD brain homogenates; assay type: binding; details: 1 nM [3H]asyn-44
Protocol: Anterior cingulate cortex tissue from a Parkinson’s disease (PD) case was generously provided by Dr. Thomas Beach at the Banner Sun Health Research Institute in Arizona, USA. […] Preparation of the frozen blocks for binding assays followed previously established protocols.
The equilibrium inhibition constants (Ki) for the unlabelled compounds were measured against [^3H]asyn-44 using our previously reported procedure. For these assays, frozen aliquots of homogenized human brain tissue (stored at −80 °C) were used. Homogenates were prepared at 10 mg/mL in phosphate-buffered saline, then diluted with 50 mM Tris buffer (pH 7.0) to a working concentration of 1 mg/mL.
Unlabeled competitor compounds were initially dissolved in DMSO at 400 μM, then diluted with Tris buffer to 20 μM, resulting in a 5% DMSO concentration. A serial dilution series (ranging from 6 μM to 4 nM) was prepared in the same 5% DMSO/Tris buffer solution to maintain consistent solvent conditions throughout the assay.
To perform the binding assay, 50 μL of the appropriately diluted competitor solution was mixed with 50 μL of [^3H]asyn-44 (1 nM final concentration) and 800 μL of Tris buffer containing 20% ethanol and 0.1% bovine serum albumin (BSA). Then, 100 μL of the 1 mg/mL brain homogenate was added, bringing the final tissue concentration to 100 μg/mL. The reaction mixtures were incubated at room temperature for 60 min before filtration through Whatman GF/B glass fibre filters using a Brandel M-24R cell harvester (Gaithersburg, MD, USA). Filters were washed three times with 3 mL of Tris buffer containing 20% ethanol and 0.1% BSA.
After washing, retained radioactivity was measured using CytoScint-ES scintillation fluid following thorough vortexing. Specific binding was calculated by correcting for nonspecific binding (as described later), and the amount of bound radioligand was derived from the filter-associated radioactivity and the molar activity of the tritiated compound.

[6] = molecular target: T3, α-synuclein (α-syn) aggregates in PD brain homogenates; test: Two point screening assay (30 nM and 300 nM) vs [3H]asyn-44 in human PD brain homogenates; assay type: binding; details: for remaining activity at 0.03 µM: 30 nM competitor; for remaining activity at 0.3 µM: 300 nM competitor
Protocol: Screening assays for the test compounds were performed at two concentrations—30 nM and 300 nM—using unlabelled competitors in human PD brain homogenates against [^3H]asyn-44 as previously described. […] Each assay was conducted in triplicate for both concentrations to ensure reproducibility and statistical reliability.

[7] = Metabolic stability in human liver microsomes; assay type: in vitro ADME; details: for t1/2: human liver microsomes (h-MR); for % disappearance at 5 minutes relative to time zero / % disappearance at 15 minutes relative to time zero / remaining at 5 min, 1 μM / % disappearance at 30 minutes relative to time zero / Clearance Category / remaining at 0.5 h, 1 μM: human liver microsomes; for remaining at 5 min, 1 μM / half-life at 1 μM / remaining at 0.5 h, 1 μM: pooled human liver microsomes; for remaining at 5 min, 1 μM / remaining at 0.5 h, 1 μM: pH 7.4; for Clearance Category: as per Cyprotex Website; for half-life at 1 μM: human, pH 7.4, human liver microsomes (h-MR); for % disappearance at 30 minutes relative to time zero / remaining at 0.5 h, 1 μM: 30 min
Protocol: Metabolic stability assays were conducted using pooled human liver microsomes (HLMs) to evaluate the rate of in vitro metabolic degradation of the test compound. Incubations were carried out in duplicate (n = 2) at a final compound concentration of 1 μM. The protein concentration of the microsomal suspension was adjusted to 0.5 mg/mL using phosphate buffer (100 mM, pH 7.4). Reactions were initiated by the addition of NADPH (final concentration 1 mM) and incubated at 37 °C. Aliquots were taken at four time points: 0, 5, 15, and 30 min. Each reaction was quenched with ice-cold acetonitrile containing internal standard, followed by centrifugation to pellet proteins. Supernatants were analyzed using a validated LC-MS/MS method to determine the concentration of the parent compound at each time point. […] Metabolic stability was assessed by calculating the percentage of the parent compound remaining at each time point. The elimination rate constant (k), half-life (t1/2), and intrinsic clearance (CLint) were derived from the natural log-transformed concentration vs. time data, assuming first-order kinetics.

DLB tissue = test system: DLB tissue; set-up: method as in PMID 38843838; details: cited from earlier work
[8] = molecular target: T4, [^3H]PiB binding in post-mortem Alzheimer’s disease (AD) brain tissue (Homo sapiens, UniProt P05067); test: Competition binding vs [3H]PiB in post-mortem AD brain tissue
T4 construct: from tissue; host or cells: post-mortem AD brain tissue
T4 sequence (P05067 672-713 limits assumed): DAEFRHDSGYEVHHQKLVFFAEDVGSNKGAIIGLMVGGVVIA
Text: (§5) We assessed the binding affinity of LMD-022 using a radioligand competition binding assay in post-mortem PD brain tissues. […] To evaluate potential off-target binding in AD brain tissues, we conducted additional binding assays using a panel of AD-related radioligands, including [^3H]PiB, [^3H]MK-6240, [^3H]Z-2340, and [^3H]PI-2620. […] Our future work will aim to optimize chemical yields of lead compounds, including LMD-022, and carry out α-syn fibril seed amplification assays or immunohistochemical co-localization with pathologic α-syn to verify target engagement as well as radiolabel lead molecules for in vivo PET imaging studies.

[9] = molecular target: [^3H]PI-2620 binding in post-mortem Alzheimer’s disease (AD) brain tissue (Homo sapiens, UniProt P10636); test: Competition binding vs [3H]PI-2620 in post-mortem AD brain tissue
[^3H]PI-2620 binding in post-mortem Alzheimer’s disease (AD) brain tissue, sequence (P10636 623-695 limits assumed): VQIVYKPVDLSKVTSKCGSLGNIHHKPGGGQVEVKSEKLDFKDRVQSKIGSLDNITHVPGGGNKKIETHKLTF
Text: as §5

[10] = molecular target: [^3H]Z-2340 binding in post-mortem Alzheimer’s disease (AD) brain tissue; test: Competition binding vs [3H]Z-2340 in post-mortem AD brain tissue; set-up: species or system human
Text: as §5

[11] = molecular target: [^3H]MK-6240 binding in post-mortem Alzheimer’s disease (AD) brain tissue (Homo sapiens, UniProt P10636); test: Competition binding vs [3H]MK-6240 in post-mortem AD brain tissue
[^3H]MK-6240 binding in post-mortem Alzheimer’s disease (AD) brain tissue, sequence (P10636 623-758 limits assumed): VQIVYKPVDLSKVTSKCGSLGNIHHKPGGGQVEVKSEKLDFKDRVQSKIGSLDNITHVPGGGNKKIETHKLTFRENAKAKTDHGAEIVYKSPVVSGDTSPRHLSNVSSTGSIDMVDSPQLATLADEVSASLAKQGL
Text: as §5

α-syn fibrils [12] = molecular target: α-syn fibrils; set-up: method as in PMID 37421950; details: cited from earlier work
[13] = A→B, read-out: Calculated recovery, A→B direction
[14] = B→A, read-out: Calculated recovery, B→A direction

Compound | Ki [5] | remaining activity at 0.03 µM [6] [%] | remaining activity at 0.3 µM [6] [%] | % disappearance at 5 minutes relative to time zero [7] [%] | % disappearance at 15 minutes relative to time zero [7] [%] | remaining at 5 min, 1 μM [7] [%] | % disappearance at 30 minutes relative to time zero [7] [%] | Clearance Category [7] | half-life at 1 μM [7] [min] | remaining at 0.5 h, 1 μM [7] [%] | other results
[11CH3]Oc1ccc(NC(=O)c2cnc(N3CCN(c4ccccn4)CC3)nc2N)cc1 [[^11C]M503-1619] | – | – | – | – | – | – | – | – | – | – | Ki (α-syn fibrils [1]): 6.5 nM; Kd (PD brain tissue): 1.5 nM
CC(C)NCC(O)COc1cccc2ccccc12 (stereo not shown) [Propranolol] | – | – | – | – | – | – | – | – | – | – | recovery at 2 μM (MDR1; [13]): 95%; recovery at 2 μM (MDR1; [14]): 116%; Papp A→B at 2 μM (MDR1): 9.28 ×10⁻⁶ cm/s; Papp B→A at 2 μM (MDR1): 8.03 ×10⁻⁶ cm/s; Efflux Category [2]: Not a substrate; Permeability Category [2]: Medium
F[C@@H]1CCN(c2ccc(-c3ccc4sc(-c5cccnc5)cc4n3)cn2)C1 [Asyn-44] | – | – | – | – | – | – | – | – | – | – | Kd [3]: 1.85 nM; Ki [4]: 9 nM
F[C@@H]1CCN(c2ccc(-n3ncc4sc(-c5cncs5)cc43)cn2)C1 [LMD-046] | 12 nM and 11.8 nM | 43 | 8 | 96.6 | 97.9 | 3.43 | – | – | – | – | t1/2 [7]: unstable
C[C@H]1O[C@@H](O[C@H]2[C@@H](O)C[C@H](O[C@H]3[C@@H](O)C[C@H](O[C@H]4CC[C@@]5(C)[C@H](CC[C@@H]6[C@@H]5C[C@@H](O)[C@]5(C)[C@@H](C7=CC(=O)OC7)CC[C@]65O)C4)O[C@@H]3C)O[C@@H]2C)C[C@H](O)[C@@H]1O [Digoxin] | – | – | – | – | – | – | – | – | – | – | recovery at 2 μM (MDR1; [13]): 79.7%; recovery at 2 μM (MDR1; [14]): 108%; Papp A→B at 2 μM (MDR1): 1.65 ×10⁻⁶ cm/s; Efflux Category [2]: Substrate of efflux; Permeability Category [2]: Low
CNc1ccc(C#C/C=C/c2nc3ccc(OCC(O)C[18F])cc3s2)cn1 (stereo not shown) [[^18F]C05-05] | – | – | – | – | – | – | – | – | – | – | IC50 (DLB tissue): 1.5 nM
Cc1cc2nc(/C=C/c3ccc(O)c(Br)c3)sc2cc1N(C)CCOCC[18F] [[^18F]F0502B] | – | – | – | – | – | – | – | – | – | – | Kd (α-syn fibrils [12]): 11 nM

The next lines start with results.

Ki [5] | remaining activity at 0.03 µM [6] [%] | remaining activity at 0.3 µM [6] [%] | % disappearance at 5 minutes relative to time zero [7] [%] | % disappearance at 15 minutes relative to time zero [7] [%] | remaining at 5 min, 1 μM [7] [%] | % disappearance at 30 minutes relative to time zero [7] [%] | Clearance Category [7] | half-life at 1 μM [7] [min] | remaining at 0.5 h, 1 μM [7] [%] | Compound | other results
9.1 nM | 38 | 4 | 54.3 | 88.3 | 45.7 | 96.3 | High | 6.37 | 3.71 | F[C@@H]1CCN(c2cnc(-c3csc4ccc(-c5cccnc5)nc34)cn2)C1 [LMD-044] | –
13 nM and 13.3 nM | 36 | 13 | 34.7 | 65.6 | 65.3 | 86.5 | High | 10.5 | 13.5 | F[C@@H]1CCN(c2cnc(-c3ccc4scc(-c5cccnc5)c4n3)cn2)C1 [LMD-045] | –
16 nM | 40 | 15 | 7.6 | 17.8 | 92.4 | 24.6 | Moderate | 75 | 75.4 | O=C1NCc2nc(-c3cnc(N4CC[C@@H](F)C4)cn3)ccc21 [LMD-022] | Ki [8]: > 10000 nM; Ki [9]: 2760 nM; t1/2 [7]: 75.3 min; Ki [10]: > 10000 nM; recovery at 2 μM (MDR1; [13]): 61.9%; recovery at 2 μM (MDR1; [14]): 120%; Papp A→B at 2 μM (MDR1): 40.6 ×10⁻⁶ cm/s; Papp B→A at 2 μM (MDR1): 37.6 ×10⁻⁶ cm/s; efflux ratio at 2 μM (MDR1; MDR1-MDCK, read-out: Efflux Ratio (B→A/A→B)): 0.93; Efflux Category [2]: Not a substrate; Permeability Category [2]: High; Ki [11]: > 10000 nM
50 nM | 38 | 25 | 46.7 | 79.2 | 53.3 | 95.0 | High | 7.05 | 5.02 | F[C@@H]1CCN(c2ccc(-n3cc4sc(-c5cccnc5)cc4n3)cn2)C1 [LMD-032] | –
